Values joined by “and” are separate entries in the source; they are usually repeats but may differ in a detail not shown here. Equal values may be shown once. Read-outs that look alike come from different tables or passages of the source.
What was measured:
[1] = Analytical fractionation (centrifugation) and RP-HPLC determination of vitamin D2 content in micelle pellet and serum; type: physicochemical; conditions: for recovered vitamin D2 found incorporated into the micelles (encapsulation efficiency): D2-rCM suspension
Experimental: Micelle preparations were centrifuged at 20° C. and 25,000×g for one hour and the supernatant was separated from the pellet by decantation. The supernatant was then ultra-filtered using Amicon 8050 stirred ultrafiltration cell with a 10,000 Da nominal molecular weight limit membrane (Millipore). All fractions were collected and analyzed for vitamin D2 content.
Each sample was then poured into a separatory funnel. […] After gentle mixing the phases were allowed to separate.

What does the source list for `C=C1CC[C@H](O)C/C1=C/C=C1\CCC[C@]2(C)[C@@H]([C@H](C)/C=C/[C@H](C)C(C)C)CC[C@@H]12` [vitamin D2, Vitamin D2]?
vitamin concentration in the micelle pellet compared to the supernatant (serum) ([1]; CM prepared by ultra-high pressure homogenization): 4-5 times; vitamin content of pellet ([1]; CM prepared by ultra-high pressure homogenization, pellet): 30.3±0.4 micrograms/mL; vitamin content of supernatant ([1]; CM prepared by ultra-high pressure homogenization, supernatant): 6.7±0.7 micrograms/mL; recovered vitamin D2 found incorporated into the micelles (encapsulation efficiency) ([1]; more typically): 45-60%; recovered vitamin D2 found incorporated into the micelles (encapsulation efficiency) ([1]; overall range): 25-75%; vitamin D2 concentration in the rCM ([1]; D2-rCM, micelle pellet): 44 to 57 µg/mL; vitamin D2 concentration in serum ([1]; D2-rCM, serum): 2 to 8 µg/mL; vitamin D2 concentration in the rCM relative to its concentration in serum ([1]; D2-rCM, more typically): 4-10 times and 5-10 times; Percent of vitamin D2 remaining, micelle pellet (0 h): 100%; Percent of vitamin D2 remaining, UV exposed serum (control II) (serum, 0 h): 100%; Percent of vitamin D2 remaining, serum (serum, 0 h): 100%; Percent of vitamin D2 remaining, UV exposed serum (control II) (serum, 3 h): 0.11%
